The test system of assay [1] is DAG concentration in Xenopus oocytes. Particulars: 60 minute incubation; cited from earlier work.
The next assay deals with HCN1 channel. Put plainly: Two microelectrode voltage clamp (2MEV) of HCN1 and HCN1 mutants expressed in Xenopus oocytes. In kind it is cell-based, mouse. Particulars: for Effect on channel activation: HCN1-R538E, 30 μM, 60 minutes perfusion; for Effect on channel gating: wild type HCN1, 200 nM.
Assay [2] relates to DmHCN (HCN channel of Drosophila melanogaster). In kind it is cell-based.
Another assay has as its system plant channel KAT1. The following applies: 200 nM 4βPMA.
The next assay concerns HCN2 channel. Particulars: for Effect on channel gating: 200 nM.
Another assay deals with HCN4 channel. Particulars: for Effect on channel gating: 200 nM.
The target of the next assay is T1, HCN1-ΔNvΔC channel (Mus musculus, UniProt O88704, A73M).
T1 construct: HCN1-ΔNvΔCterm (amino acid positions 73 to 390 of mHCN1); expressed in transfected cells; host or cells: Xenopus oocytes (cRNA injection); excised inside-out patches
T1 sequence (O88704 73-390 A73M): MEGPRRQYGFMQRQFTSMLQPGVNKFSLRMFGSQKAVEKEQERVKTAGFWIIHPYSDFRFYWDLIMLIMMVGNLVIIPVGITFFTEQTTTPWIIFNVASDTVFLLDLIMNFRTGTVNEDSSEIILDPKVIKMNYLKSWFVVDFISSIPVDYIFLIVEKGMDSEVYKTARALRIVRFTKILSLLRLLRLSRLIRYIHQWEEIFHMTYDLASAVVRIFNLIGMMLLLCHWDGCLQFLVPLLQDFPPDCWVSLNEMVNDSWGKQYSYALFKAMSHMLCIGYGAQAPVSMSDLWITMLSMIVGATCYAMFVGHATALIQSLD
Put plainly: Excised inside-out patch (IOP) clamp of HCN1-ΔNvΔC and basic-residue alanine mutants with 4,5-PIP2. Type of assay: biochemical. On the procedure:
Molecular Biology. […] Electrophysiology-General. […] Electrophysiology-Excised cell-free inside-out patch clamp recordings. […] When cAMP was applied, NaCl was replaced with equivalent amount of cAMP. In experiments where 4,5-PIP2, kinase inhibitors or other compounds were included, stock solutions of the compounds dissolved in either DMSO or H2O were added to the recording solutions to an appropriate final concentration. […] It was routinely tested and confirmed that addition of the solvents alone was without effect. Analysis of electrophysiological recordings. […] IOP-clamp was performed to measure the gating activity of the wild type and mutant channels under a “rundown” condition. […] The minimal 4,5-PIP2 responsive mouse HCN1 channel […] of mHCN1), were further mutated to produce the following constructs in which the basic amino acid residues Arginine, Lysine and Histidine are replaced […]), NT2 […], and […]), NT3 […], and […]), NT4 […], and […], and […], and […]), and […]). All individual point mutations were also constructed. The mutants were expressed in Xenopus oocytes. IOP clamp was performed with the mutant channels in the presence and absence of 5 μM 4,5-PIP2. […] Facilitation of HCN channel gating may be effected by direct interaction between 4,5-PIP2 and basic amino acid residues in the cytoplasmic region of the HCN channel. See hypothesis in the legend of FIG. 6.

In the next assay the target is T2, HCN2-R591E channel (Mus musculus, UniProt O88703, R591E).
T2 construct: expressed in transfected cells; host or cells: Xenopus oocytes (cRNA injection); excised inside-out patches
T2 sequence (O88703 1-863 R591E): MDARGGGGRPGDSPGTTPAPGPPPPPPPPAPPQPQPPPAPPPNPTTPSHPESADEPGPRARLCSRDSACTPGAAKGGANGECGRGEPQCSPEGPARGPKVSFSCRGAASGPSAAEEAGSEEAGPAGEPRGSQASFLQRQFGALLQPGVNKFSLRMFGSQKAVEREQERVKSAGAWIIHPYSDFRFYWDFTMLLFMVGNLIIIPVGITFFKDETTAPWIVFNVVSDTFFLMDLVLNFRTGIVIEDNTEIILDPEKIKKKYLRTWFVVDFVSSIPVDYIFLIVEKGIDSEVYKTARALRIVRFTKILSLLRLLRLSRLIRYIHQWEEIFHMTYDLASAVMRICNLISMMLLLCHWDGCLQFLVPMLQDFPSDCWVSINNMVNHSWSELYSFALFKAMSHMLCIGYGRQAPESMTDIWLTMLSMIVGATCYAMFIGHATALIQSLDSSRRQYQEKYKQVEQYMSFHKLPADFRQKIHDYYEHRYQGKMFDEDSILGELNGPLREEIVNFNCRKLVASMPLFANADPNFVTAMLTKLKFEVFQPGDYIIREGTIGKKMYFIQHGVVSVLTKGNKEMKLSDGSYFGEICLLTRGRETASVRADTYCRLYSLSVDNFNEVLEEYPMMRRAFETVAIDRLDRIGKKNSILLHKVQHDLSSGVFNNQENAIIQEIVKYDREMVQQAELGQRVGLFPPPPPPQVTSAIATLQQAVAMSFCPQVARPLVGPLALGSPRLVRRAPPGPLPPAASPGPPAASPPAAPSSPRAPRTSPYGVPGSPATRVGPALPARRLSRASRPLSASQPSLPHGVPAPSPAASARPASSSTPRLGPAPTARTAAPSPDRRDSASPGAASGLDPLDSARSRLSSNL
Put plainly: Excised inside-out patch (IOP) clamp of HCN2-R591E after rundown, 4,5-PIP2 rescue. Type of assay: biochemical. The procedure:
Molecular Biology. […] Electrophysiology-General. […] Electrophysiology-Excised cell-free inside-out patch clamp recordings. […] When cAMP was applied, NaCl was replaced with equivalent amount of cAMP. In experiments where 4,5-PIP2, kinase inhibitors or other compounds were included, stock solutions of the compounds dissolved in either DMSO or H2O were added to the recording solutions to an appropriate final concentration. […] It was routinely tested and confirmed that addition of the solvents alone was without effect. Analysis of electrophysiological recordings. […] An HCN2-[…] construct was expressed in Xenopus oocytes. 2 MEV-clamp recording was performed to measure the gating activity of the HCN2-[…] channel in the intact Xenopus oocytes. IOP-clamp was performed to measure the gating activity of the HCN2-[…] channel under a “rundown” condition. IOP-clamp was also performed in the presence of 4,5-PIP2 to detect the effect of 4,5-PIP2 on the gating activity of the HCN2-[…] channel under a “rundown” condition.

Assay [3] relates to HCN2 channel (wild type and CNBD-disabled). Put plainly: Modulation of HCN2 activation gating by the PTK inhibitor genistein. In kind it is cell-based, mouse. On the procedure: (§1) The effect of PTK inhibitor genistein on HCN channel activation was studies using wild type and CNBD-disabled HCN channels. Recordings were made in the presence and absence of genistein.
(§2) Activation of wild type HCN channels and mutant HCN channels with mutation in the C-linker or CNBD domains was recorded in the presence and absence of PTK inhibitor genistein.

The test system of assay [4] is HCN1 channel (wild type, CNBD-disabled and deletion constructs). Put plainly: Modulation of HCN1 activation gating by the PTK inhibitor genistein. Type of assay: cell-based, mouse. The procedure: as §1, §2
The results in FIG. 18B show the effect of genistein treatment to activation of HCN1-R538E, HCN1-ΔCNBD and HCN1-ΔCterm. Left Panel: Change in V1/2 (V1/2 Final−V1/2 Initial) in control and genistein treated cells (90 μM for 30 min).

With `O=c1c2ccccc2[nH]c(=S)n1CCN1CCC(=C(c2ccc(F)cc2)c2ccc(F)cc2)CC1` [R59949], the “DAG concentration in Xenopus oocytes” value in assay [1] is recorded as “double”. The “Effect on channel activation” value in the assay on HCN1 channel is listed as “facilitates”.
On to `CCCCCCCCCCCCCC(=O)O[C@@H]1[C@@H](C)[C@@]2(O)[C@@H](C=C(CO)C[C@]3(O)C(=O)C(C)=C[C@@H]23)[C@@H]2C(C)(C)[C@]12OC(C)=O` [4βPMA, 4-βphorbol-1 2myristate-13-acetate], for which the “Effect on channel gating” value (in [2]; in the assay with HCN2 channel; with HCN4 channel; in the assay on HCN1 channel) was “facilitated” throughout. The “ΔV½ WILD TYPE” value is listed as “+9 ± 4” in assay [2]; “+8 ± 2” with HCN2 channel (30 min in 200 nM 4βPMA); “+17 ± 7” with HCN4 channel (30 min in 200 nM 4βPMA); “+15 ± 3” in the assay with HCN1 channel (HCN1, 30 min in 200 nM 4βPMA). Besides, in the assay with plant channel KAT1, the “Effect on channel activation” value is on record as “insensitive”. Further, the “ΔV½ CA UNCOUPLED” value in the assay on HCN2 channel (30 min in 200 nM 4βPMA) is on record as “+15 ± 2”; in the assay on HCN1 channel (HCN1, 30 min in 200 nM 4βPMA), “+29 ± 3”. In addition, the “ΔV½ CA UNCOUPLED H^+ UNCOUPLED” value with HCN2 channel (30 min in 200 nM 4βPMA) is “+26 ± 3”; in the assay with HCN1 channel (HCN1, 30 min in 200 nM 4βPMA), “+32 ± 5”. Besides, in the assay on HCN1 channel (mutants of HCN1-ΔNvΔC, 200 nM 4βPMA, 30 minutes), the “4βPMA facilitation of gating in serine, threonine and tyrosine mutants” value is listed as “not affected”.
Regarding “Phosphatidyl-inositol 4,5-bisphosphate [4,5-PIP2]”, on HCN1-ΔNvΔC channel (HCN1-ΔNvΔC, 5 uM 4,5-PIP2, 5 min), the “Effect on gating of rundown channels” value is recorded as “redepolarizes gating”. For the same compound, the “Response to 4,5-PIP2 facilitation of channel gating” value on HCN1-ΔNvΔC channel (mutants NT1, NT2 and NT3 of HCN1-ΔNvΔCterm, 5 μM 4,5-PIP2) is “reduced response”. Moreover, the “Response (difference in V1/2) to 4,5-PIP2 versus wild type” value on HCN1-ΔNvΔC channel (mutants R59A, S23-3A, R112A, S45-3A of HCN1-ΔNvΔC, 5 uM 4,5-PIP2) is “not different from wild type”. At HCN2-R591E channel (IOP-clamp), the “Effect on gating activity under rundown condition” value is reported as “restore the gating activity”. Further, on HCN2-R591E channel (IOP-clamp after rundown), the “Effect on gating slope” value is “restores the more shallow gating slope” and the “Mean shift in V1/2 contributed by 4,5-PIP2 to intact cell gating” value is roughly 20 mV.
In the case of `O=c1c(-c2ccc(O)cc2)coc2cc(O)cc(O)c12` [genistein], the “Effect on activation curve” value is recorded as “facilitation” in assay [3] (HCN2-R591E (CNBD disabled)), “inhibition” in assay [3] (wild type HCN2), “robust facilitation” in assay [4] (HCN1-R538E (CNBD disabled)) and “weak facilitation” in assay [4] (wild type HCN1). For the same compound, the Genistein facilitation result in [3] (cAMP insensitive HCN2 constructs) was “independent of the CNBD”. Further, the “Genistein facilitation, Δ(ΔV1/2), compared with HCN1-R538E” value in [4] (HCN1-ΔCNBD, 90 μM for 30 min) is reported as “the same”. Further, in assay [4] (HCN1-ΔCterm (C-linker deleted), 90 μM for 30 min), the “Genistein sensitivity, Δ(ΔV1/2)” value was “insensitive”.
Regarding `Cc1nc2sccn2c(=O)c1CCN1CCC(=C(c2ccccc2)c2ccc(F)cc2)CC1` [R59022], in [1], the “DAG concentration in Xenopus oocytes” value was “double”. Also, the “Effect on channel activation” value in the assay with HCN1 channel is “facilitates”.
`CCCCCCCCCCCCCC(=O)O[C@@H]1[C@@H](C)[C@@]2(O)[C@@H](C=C(CO)C[C@@]3(O)C(=O)C(C)=C[C@@H]23)[C@@H]2C(C)(C)[C@]12OC(C)=O` [4αPMA]: the “Effect on channel gating” value (in assay [2]; in the assay on HCN2 channel; with HCN4 channel; in the assay on HCN1 channel) was “unaffected” throughout.

Source of the values: patent US20070025986A1, “Modulation of HCN channels by second messengers” (priority 2003, published 2007).
